Measurements from ChEMBL document CHEMBL1201862, “PubChem BioAssay data set” (2004).
Calls of active or inactive are those of the source.

Columns and labels:
HEK293 [1] = assay: cells; format: functional, cell-based; settings: Homo sapiens
[2] = cytotoxicity dependent on PAX8, dose response, cell-based, plate reader, dry powder (AID 743049); format: functional
Beta-galactosidase = Beta-galactosidase (Escherichia coli, UniProt Q8VNN2); assay: beta-galactosidase enzyme inhibitors and activators, dose response, artefact control for CCR6 antagonist project, biochemical, E. coli enzyme, set 3 (AID 504712); format: functional
HEK293 [3] = assay: cells; format: functional, cell-based; settings: Homo sapiens; remark: listed apart in the source
Beta Lactamase = Beta Lactamase (Pseudomonas aeruginosa, UniProt Q932Y6); assay: beta-lactamase reporter inhibitor potency, dose response, artefact control for NOD2-RIPK2 interaction inhibitor project, BLA reporter cells, FRET fluorescence (AID 651552); format: functional, cell-based
HEK293 [4] = assay: NOD1 signaling inhibitors, primary screen, cell-based, luminescence, uHTS (AID 1578); format: functional; settings: Homo sapiens
[5] = cytotoxicity in OVCAR4 cells, dose response, cytotoxicity control for PAX8 inhibitor project, cell-based, plate reader, dry powder, SA11 (AID 743150); format: functional; settings: OVCAR-4
[6] = IGROV1 ovarian cancer cell cytotoxicity, dose response, PAX8 inhibitor project, plate reader, dry powder samples (AID 743043); format: functional, cell-based; settings: IGROV-1
HEK293 [7] = assay: cells; format: functional, cell-based; settings: Homo sapiens; remark: listed apart in the source
Paired box protein Pax-8 = Paired box protein Pax-8 (Homo sapiens, UniProt Q06710); assay: inhibitors of PAX8-driven TPO luciferase reporter, dose response, RMG-I cells, cherry-pick (AID 687027); format: functional, cell-based;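 note: luciferase reporter driven by Pax8 target thyroperoxidase promoter measured by SteadyGlo luminescence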
[8] = target: Nucleotide-binding oligomerization domain-containing protein 2 (Homo sapiens, UniProt Q9HC29); assay: NOD2 signaling inhibitors, cell-based, luminescence, uHTS, HEK293 (AID 1566); format: functional
[9] = cytotoxicity in COV434 cells, dose response, cytotoxicity control for PAX8 inhibitor project, cell-based, plate reader, dry powder, SA7 (AID 743145); format: functional
[10] = NIH:OVCAR-3 ovarian cancer cell cytotoxicity, dose response, PAX8 inhibitor project, plate reader, dry powder samples (AID 743044); format: functional, cell-based
[11] = cytotoxicity in COV362 ovarian cancer cells, dose response, cytotoxicity control for PAX8 inhibitor project, cell-based, plate reader, dry powder, SA12 (AID 743144); format: functional
HEK293 [12] = assay: NOD2 signaling inhibitors in MDP-stimulated cells, cell-based, uHTS, luminescence (AID 2001); format: functional; settings: Homo sapiens
[13] = cytotoxicity in OV-90 ovarian cancer cells, dose response, PAX8 inhibitor project, cell-based, plate reader, dry powder, SA8 (AID 743149); format: functional
[14] = Fluorescence-based cell-based high throughput dose response assay for inhibitors of the interaction of nucleotide-binding oligomerization domain containing 2 (NOD2) and the receptor-interacting serine-threonine kinase 2 (RIPK2).; format: functional; settings: Homo sapiens
[15] = NIH-3T3 fibroblast cytotoxicity, dose response, cytotoxicity control for antifungal single agent project, cell-based, Alamar Blue, dry powder (AID 602188); format: functional
Interleukin-8 = Interleukin-8 (Homo sapiens, UniProt P10145); assay: Dose Response confirmation of uHTS small molecule hits for cystic fibrosis induced NFkb Inhibitors in a PAF-induced IL8 counterscreen.; format: functional; settings: read-out: IC50_Mean
[16] = target: Aryl hydrocarbon receptor (Homo sapiens, UniProt P35869); settings: Potency;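 note: confirmatory quantitative high-throughput screen measuring activation of the AhR signaling pathway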
Protein Wnt-3a = Protein Wnt-3a (Mus musculus, UniProt P27467); assay: Wnt3a-driven reporter signaling inhibition, dose response, selectivity assay for Gli-SUFU antagonist project, Wnt-LIGHT cells, luminescence (AID 651570); format: functional; settings: read-out: IC50_Mean;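 note: Wnt-LIGHT reporter cells stimulated with conditioned medium from Wnt3a-producing cells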
[17] = control 3'UTR Renilla luciferase suppression, dose response, counter-screen for Shn3 inhibitor project, cell-based, Clone20-Shn3RL, cherry-picked (AID 624133); format: functional
[18] = Shn3 3'UTR reporter inhibitors, dose response, cell-based, Clone20 osteoblasts, firefly luciferase, cherry-picked (AID 624132); format: functional;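 note: firefly luciferase luminescence from reporter carrying the Shn3 3'UTR in osteoblasts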
[19] = HepG2 cell cytotoxicity, dose response, cytotoxicity control for Shn3 inhibitor project, CellTiter-Glo, cherry-picked (AID 624134); format: functional, cell-based
[20] = target: ATP-binding cassette sub-family B member 6 (Homo sapiens, UniProt Q9NP58); assay: ABCB6 transporter inhibitors, dose response, K562-ABCB6 cells, flow cytometry, cherry pick 1 (AID 623955); format: functional; settings: read-out: EC50_MICROM
Sequence of ATP-binding cassette sub-family B member 6 (Q9NP58 whole entry): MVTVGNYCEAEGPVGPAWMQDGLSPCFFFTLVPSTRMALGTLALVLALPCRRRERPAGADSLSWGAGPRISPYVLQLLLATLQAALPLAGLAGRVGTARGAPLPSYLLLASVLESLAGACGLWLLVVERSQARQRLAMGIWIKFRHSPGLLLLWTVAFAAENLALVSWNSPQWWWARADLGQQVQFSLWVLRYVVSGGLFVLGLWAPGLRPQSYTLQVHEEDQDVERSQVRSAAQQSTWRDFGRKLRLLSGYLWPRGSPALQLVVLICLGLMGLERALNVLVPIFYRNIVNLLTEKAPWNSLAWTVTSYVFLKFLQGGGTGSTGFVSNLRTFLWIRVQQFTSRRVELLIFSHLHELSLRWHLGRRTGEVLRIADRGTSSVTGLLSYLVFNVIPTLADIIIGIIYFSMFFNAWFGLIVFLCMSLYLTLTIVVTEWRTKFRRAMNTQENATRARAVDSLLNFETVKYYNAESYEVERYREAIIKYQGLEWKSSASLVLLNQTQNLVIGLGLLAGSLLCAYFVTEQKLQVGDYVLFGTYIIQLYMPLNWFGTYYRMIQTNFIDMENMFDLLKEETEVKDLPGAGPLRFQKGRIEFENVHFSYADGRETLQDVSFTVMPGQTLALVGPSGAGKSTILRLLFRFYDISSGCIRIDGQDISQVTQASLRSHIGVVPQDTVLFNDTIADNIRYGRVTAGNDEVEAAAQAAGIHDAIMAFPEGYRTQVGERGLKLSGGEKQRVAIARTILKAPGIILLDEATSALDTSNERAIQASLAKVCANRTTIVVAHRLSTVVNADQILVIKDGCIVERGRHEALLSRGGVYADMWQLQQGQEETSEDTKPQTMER

Sequence of Aryl hydrocarbon receptor (P35869 whole entry): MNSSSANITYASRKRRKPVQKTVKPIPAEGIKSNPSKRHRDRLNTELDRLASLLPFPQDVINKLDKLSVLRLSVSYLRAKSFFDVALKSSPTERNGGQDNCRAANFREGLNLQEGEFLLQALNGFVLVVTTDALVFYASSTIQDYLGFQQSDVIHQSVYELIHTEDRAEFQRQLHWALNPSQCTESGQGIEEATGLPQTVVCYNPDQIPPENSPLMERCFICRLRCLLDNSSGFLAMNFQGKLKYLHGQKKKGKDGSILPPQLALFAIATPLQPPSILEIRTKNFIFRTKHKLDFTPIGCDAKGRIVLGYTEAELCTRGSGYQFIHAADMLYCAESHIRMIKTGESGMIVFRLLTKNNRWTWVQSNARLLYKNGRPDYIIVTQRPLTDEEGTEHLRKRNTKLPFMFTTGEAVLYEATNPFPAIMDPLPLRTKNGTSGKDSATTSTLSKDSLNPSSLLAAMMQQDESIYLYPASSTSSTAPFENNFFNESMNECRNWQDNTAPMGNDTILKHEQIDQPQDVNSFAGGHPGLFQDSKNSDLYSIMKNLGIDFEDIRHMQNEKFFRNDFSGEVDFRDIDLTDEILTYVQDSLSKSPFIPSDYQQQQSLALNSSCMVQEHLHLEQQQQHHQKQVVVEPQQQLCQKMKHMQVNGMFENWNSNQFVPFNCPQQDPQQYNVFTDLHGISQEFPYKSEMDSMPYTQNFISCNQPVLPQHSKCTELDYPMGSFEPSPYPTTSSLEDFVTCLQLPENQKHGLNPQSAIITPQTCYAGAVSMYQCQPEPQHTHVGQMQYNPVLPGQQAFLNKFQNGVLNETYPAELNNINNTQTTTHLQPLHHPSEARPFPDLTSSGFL
Sequence of Protein Wnt-3a (P27467 whole entry): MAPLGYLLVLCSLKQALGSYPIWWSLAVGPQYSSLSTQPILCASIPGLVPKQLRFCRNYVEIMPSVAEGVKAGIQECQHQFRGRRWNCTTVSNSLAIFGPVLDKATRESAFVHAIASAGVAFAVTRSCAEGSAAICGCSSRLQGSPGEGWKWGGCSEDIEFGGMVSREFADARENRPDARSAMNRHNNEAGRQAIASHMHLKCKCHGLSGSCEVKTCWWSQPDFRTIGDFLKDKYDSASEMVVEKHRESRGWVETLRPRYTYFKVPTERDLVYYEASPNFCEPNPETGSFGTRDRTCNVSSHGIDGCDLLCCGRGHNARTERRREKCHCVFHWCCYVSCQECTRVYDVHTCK
Sequence of Nucleotide-binding oligomerization domain-containing protein 2 (Q9HC29 whole entry, the tested form may be a part): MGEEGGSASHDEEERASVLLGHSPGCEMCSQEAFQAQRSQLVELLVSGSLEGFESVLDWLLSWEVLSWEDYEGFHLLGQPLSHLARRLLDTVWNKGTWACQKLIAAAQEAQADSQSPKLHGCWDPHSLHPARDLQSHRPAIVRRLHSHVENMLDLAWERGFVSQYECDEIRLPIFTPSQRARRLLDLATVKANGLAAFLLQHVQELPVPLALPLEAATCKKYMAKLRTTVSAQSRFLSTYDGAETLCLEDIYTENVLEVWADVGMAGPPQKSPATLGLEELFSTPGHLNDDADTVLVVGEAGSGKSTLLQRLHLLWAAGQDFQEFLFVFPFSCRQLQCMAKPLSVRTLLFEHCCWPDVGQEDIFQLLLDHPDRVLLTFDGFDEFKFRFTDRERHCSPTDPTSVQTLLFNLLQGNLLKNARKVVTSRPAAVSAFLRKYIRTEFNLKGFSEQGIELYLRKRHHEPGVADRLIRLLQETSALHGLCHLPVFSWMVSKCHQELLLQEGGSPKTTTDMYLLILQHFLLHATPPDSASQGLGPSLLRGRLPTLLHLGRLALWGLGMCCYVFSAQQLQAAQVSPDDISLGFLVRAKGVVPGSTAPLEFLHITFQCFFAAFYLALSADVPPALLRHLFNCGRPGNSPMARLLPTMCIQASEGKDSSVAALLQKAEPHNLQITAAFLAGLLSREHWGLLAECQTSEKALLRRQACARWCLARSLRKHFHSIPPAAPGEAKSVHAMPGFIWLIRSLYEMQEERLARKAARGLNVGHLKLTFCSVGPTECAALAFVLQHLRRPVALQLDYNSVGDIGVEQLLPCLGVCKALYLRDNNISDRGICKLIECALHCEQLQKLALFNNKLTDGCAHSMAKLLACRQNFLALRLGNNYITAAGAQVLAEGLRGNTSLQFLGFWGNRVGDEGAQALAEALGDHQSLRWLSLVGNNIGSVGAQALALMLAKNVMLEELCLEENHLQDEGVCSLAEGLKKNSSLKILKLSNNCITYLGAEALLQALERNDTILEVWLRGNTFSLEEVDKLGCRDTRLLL
Sequence of Beta Lactamase (Q932Y6 whole entry): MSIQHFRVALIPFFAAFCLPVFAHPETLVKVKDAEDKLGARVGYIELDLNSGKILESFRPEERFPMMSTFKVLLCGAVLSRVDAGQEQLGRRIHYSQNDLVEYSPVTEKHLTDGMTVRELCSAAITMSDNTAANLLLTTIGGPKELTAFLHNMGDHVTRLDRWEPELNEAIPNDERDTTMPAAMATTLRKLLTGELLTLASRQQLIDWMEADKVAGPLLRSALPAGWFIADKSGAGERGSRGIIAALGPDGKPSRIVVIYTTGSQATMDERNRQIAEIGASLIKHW
Sequence of Beta-galactosidase (Q8VNN2 whole entry): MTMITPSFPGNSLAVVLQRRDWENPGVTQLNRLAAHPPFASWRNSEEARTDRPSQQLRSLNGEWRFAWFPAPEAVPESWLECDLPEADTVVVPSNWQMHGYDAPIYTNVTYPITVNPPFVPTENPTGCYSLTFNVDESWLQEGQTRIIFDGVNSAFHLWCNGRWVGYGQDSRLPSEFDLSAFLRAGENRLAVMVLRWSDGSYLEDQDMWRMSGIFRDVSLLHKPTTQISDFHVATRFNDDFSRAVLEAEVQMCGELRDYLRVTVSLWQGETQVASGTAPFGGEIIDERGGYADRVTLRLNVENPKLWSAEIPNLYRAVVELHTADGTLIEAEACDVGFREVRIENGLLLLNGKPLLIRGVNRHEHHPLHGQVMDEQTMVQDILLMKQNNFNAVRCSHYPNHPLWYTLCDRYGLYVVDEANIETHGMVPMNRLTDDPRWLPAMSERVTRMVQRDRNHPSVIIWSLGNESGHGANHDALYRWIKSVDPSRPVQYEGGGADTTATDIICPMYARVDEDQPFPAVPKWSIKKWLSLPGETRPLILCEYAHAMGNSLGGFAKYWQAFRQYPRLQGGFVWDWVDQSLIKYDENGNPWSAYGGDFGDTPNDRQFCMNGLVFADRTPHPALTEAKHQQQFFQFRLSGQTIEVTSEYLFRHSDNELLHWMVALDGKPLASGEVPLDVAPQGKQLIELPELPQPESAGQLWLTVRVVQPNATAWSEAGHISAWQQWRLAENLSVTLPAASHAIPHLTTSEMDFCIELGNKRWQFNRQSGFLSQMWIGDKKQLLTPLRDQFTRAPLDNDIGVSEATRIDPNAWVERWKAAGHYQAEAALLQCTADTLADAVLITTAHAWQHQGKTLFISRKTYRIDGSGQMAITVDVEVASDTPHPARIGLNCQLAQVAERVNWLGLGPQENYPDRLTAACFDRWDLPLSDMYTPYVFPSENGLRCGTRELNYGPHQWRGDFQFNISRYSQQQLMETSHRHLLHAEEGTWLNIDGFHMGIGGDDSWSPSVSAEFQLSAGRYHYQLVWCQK
Sequence of Paired box protein Pax-8 (Q06710 whole entry, the tested form may be a part): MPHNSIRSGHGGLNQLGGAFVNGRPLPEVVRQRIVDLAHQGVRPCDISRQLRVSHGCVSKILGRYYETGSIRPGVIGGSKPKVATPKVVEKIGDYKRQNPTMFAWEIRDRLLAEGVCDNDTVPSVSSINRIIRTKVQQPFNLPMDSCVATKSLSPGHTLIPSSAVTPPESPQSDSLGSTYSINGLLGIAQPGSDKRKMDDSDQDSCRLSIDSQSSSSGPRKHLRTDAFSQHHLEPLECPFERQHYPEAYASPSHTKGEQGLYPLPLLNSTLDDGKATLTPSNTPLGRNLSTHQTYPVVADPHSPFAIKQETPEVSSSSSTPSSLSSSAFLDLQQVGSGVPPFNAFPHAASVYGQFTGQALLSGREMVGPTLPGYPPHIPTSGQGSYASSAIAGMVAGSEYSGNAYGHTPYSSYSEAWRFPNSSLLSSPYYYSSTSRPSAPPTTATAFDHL
Sequence of Interleukin-8 (P10145 whole entry): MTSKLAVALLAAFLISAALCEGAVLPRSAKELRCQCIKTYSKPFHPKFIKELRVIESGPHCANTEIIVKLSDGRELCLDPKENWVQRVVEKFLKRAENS

COc1cccc2sc(N(CCCN(C)C)C(=O)CCS(=O)(=O)c3ccccc3)nc12
IC50 (HEK293 [1]): > 20 µM (inactive) | AC50 [2]: 8.54 µM (active) | IC50 (Beta-galactosidase): > 66.6 µM (inactive) | IC50 (HEK293 [3]): 5.96 µM (active) | IC50 (Beta Lactamase): 17.2 µM (inactive) | EC50 (HEK293 [4]): 8.24 µM (active) | AC50 [5]: 22.1 µM (active) | AC50 [6]: 28.7 µM (active) | IC50 (HEK293 [7]): > 20 µM (inactive) | AC50 (Paired box protein Pax-8): 7.04 µM (active) | EC50 [8]: > 20 µM (inactive) | AC50 [9]: 12.9 µM (active) | AC50 [10]: 10 µM (active) | AC50 [11]: 13.9 µM (active) | IC50 (HEK293 [12]): 6.06 µM (active) | AC50 [13]: 43.1 µM (active) | IC50 [14]: 4.68 µM (active)

O=C(Nc1nc(-c2ccccn2)cs1)c1ccccc1
AC50 [15]: 7.19 µM (active)

Cc1ccc2occ(/C=N/NC(=O)c3ccccc3Br)c(=O)c2c1
IC50 (Interleukin-8): 3.77 µM (active)

Nc1ccc(N)c(Cl)c1
AC50 [16]: 31.6 µM (inconclusive)

COCCOc1nc2c(c(=O)n(C)c(=O)n2C)n1Cc1cccc(OC)c1
IC50 (Protein Wnt-3a): 6.29 µM (active) | AC50 [17]: 4.09 µM (active) | AC50 [18]: 2.23 µM (active) | AC50 [19]: 59.9 µM (active)

C[N+](C)(C)CC1CCCC(C[N+](C)(C)C)C1=O (stereo not given)
EC50 [20]: 4.14 µM (active)
